Results published in ChEMBL document CHEMBL6182889, “Discovery of the first-in-class DOT1L PROTAC degrader” (Eur J Med Chem, 2025).
The source made the active and inactive calls. The calls are words filed in the database; no cut-off is given here.

Tests used:
[1] = molecular target: T1, von Hippel-Lindau disease tumor suppressor/Histone-lysine N-methyltransferase, H3 lysine-79 specific (Homo sapiens, UniProt Q8TEK3+P40337); test: PROTAC activity at VHL/DOT1L in mixed-lineage leukemia rearranged (MLL-r) human THP-1 cells assessed as induction of DOT1L degradation incubated for 24 hrs by western blot analysis; assay type: cell-based
[2] = molecular target: T1, von Hippel-Lindau disease tumor suppressor/Histone-lysine N-methyltransferase, H3 lysine-79 specific; test: PROTAC activity at VHL/DOT1L in mixed-lineage leukemia rearranged (MLL-r) human THP-1 cells assessed as maximal induction of DOT1L degradation incubated for 24 hrs by western blot analysis relative to control; assay type: cell-based
Target sequence in this assay (P40337 whole entry, looked up): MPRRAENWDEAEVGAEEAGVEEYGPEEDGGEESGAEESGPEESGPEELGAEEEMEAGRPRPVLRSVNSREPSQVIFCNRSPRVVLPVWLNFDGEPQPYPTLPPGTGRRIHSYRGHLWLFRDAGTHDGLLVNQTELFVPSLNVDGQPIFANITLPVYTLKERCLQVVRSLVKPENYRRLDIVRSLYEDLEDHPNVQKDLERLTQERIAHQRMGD
Target sequence in this assay (Q8TEK3 whole entry, looked up): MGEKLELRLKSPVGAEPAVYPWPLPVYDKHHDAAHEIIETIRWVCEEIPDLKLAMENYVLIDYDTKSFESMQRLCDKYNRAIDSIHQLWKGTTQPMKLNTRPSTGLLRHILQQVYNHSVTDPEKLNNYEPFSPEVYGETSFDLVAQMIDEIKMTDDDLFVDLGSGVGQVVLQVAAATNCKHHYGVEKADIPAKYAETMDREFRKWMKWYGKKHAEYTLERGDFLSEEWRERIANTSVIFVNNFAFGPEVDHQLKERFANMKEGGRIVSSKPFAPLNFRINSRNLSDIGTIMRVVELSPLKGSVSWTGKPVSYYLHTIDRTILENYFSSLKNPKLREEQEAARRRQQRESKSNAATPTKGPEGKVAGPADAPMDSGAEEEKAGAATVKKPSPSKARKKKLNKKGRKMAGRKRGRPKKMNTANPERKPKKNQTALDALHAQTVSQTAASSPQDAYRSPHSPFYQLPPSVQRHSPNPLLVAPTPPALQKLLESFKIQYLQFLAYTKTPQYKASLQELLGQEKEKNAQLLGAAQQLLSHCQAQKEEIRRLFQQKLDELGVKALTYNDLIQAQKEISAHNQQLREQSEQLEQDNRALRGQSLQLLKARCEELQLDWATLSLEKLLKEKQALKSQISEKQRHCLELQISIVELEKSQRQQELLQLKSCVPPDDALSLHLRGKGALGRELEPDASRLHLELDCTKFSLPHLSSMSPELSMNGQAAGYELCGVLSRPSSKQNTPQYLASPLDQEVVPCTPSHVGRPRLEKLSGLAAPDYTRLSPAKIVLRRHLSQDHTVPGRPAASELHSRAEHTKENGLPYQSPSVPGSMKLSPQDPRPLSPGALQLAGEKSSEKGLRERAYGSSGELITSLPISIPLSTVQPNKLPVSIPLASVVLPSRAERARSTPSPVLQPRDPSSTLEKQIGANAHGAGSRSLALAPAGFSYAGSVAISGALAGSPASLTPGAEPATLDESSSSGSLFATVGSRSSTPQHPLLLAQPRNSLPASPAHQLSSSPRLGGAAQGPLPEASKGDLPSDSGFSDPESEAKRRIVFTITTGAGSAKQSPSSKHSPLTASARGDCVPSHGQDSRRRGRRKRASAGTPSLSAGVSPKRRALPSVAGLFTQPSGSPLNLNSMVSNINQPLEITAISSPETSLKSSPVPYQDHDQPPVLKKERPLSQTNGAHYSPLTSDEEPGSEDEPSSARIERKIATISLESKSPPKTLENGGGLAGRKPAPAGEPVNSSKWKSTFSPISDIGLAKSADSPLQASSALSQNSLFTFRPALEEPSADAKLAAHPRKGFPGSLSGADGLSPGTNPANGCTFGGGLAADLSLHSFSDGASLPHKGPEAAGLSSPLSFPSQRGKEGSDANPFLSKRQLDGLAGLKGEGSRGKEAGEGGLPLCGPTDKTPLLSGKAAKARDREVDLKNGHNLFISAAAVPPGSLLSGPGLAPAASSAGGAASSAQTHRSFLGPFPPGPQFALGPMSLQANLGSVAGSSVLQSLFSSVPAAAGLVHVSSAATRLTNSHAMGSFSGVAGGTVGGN

[3] = molecular target: T1, von Hippel-Lindau disease tumor suppressor/Histone-lysine N-methyltransferase, H3 lysine-79 specific; test: PROTAC activity at VHL/DOT1L in mixed-lineage leukemia rearranged (MLL-r) human THP-1 cells assessed as induction of DOTIL degradation by measuring fold change in H3K79Me2 level at 3 uM incubated for 2 hrs by western blot analysis relative to control; assay type: cell-based
Target sequence in this assay (P40337 whole entry, looked up): as the sequence (P40337 whole entry, looked up) above
Target sequence in this assay (Q8TEK3 whole entry, looked up): as the sequence (Q8TEK3 whole entry, looked up) above

[4] = molecular target: T1, von Hippel-Lindau disease tumor suppressor/Histone-lysine N-methyltransferase, H3 lysine-79 specific; test: PROTAC activity at VHL/DOT1L in mixed-lineage leukemia rearranged (MLL-r) human THP-1 cells assessed as induction of DOTIL degradation by measuring fold change in H3K79Me2 level at 3 uM incubated for 4 hrs by western blot analysis relative to control; assay type: cell-based
Target sequence in this assay (P40337 whole entry, looked up): as the sequence (P40337 whole entry, looked up) above
Target sequence in this assay (Q8TEK3 whole entry, looked up): as the sequence (Q8TEK3 whole entry, looked up) above

[5] = molecular target: T1, von Hippel-Lindau disease tumor suppressor/Histone-lysine N-methyltransferase, H3 lysine-79 specific; test: PROTAC activity at VHL/DOT1L in mixed-lineage leukemia rearranged (MLL-r) human MV4-11 cells assessed as induction of DOTIL degradation by measuring fold change in DOT1L protein level at 3 uM incubated for 8 hrs by western blot analysis relative to control; assay type: cell-based
Target sequence in this assay (P40337 whole entry, looked up): as the sequence (P40337 whole entry, looked up) above
Target sequence in this assay (Q8TEK3 whole entry, looked up): as the sequence (Q8TEK3 whole entry, looked up) above

[6] = molecular target: T1, von Hippel-Lindau disease tumor suppressor/Histone-lysine N-methyltransferase, H3 lysine-79 specific; test: PROTAC activity at VHL/DOT1L in mixed-lineage leukemia rearranged (MLL-r) human MV4-11 cells assessed as induction of DOTIL degradation by measuring fold change in DOT1L protein level at 3 uM incubated for 24 hrs by western blot analysis relative to control; assay type: cell-based
Target sequence in this assay (P40337 whole entry, looked up): as the sequence (P40337 whole entry, looked up) above
Target sequence in this assay (Q8TEK3 whole entry, looked up): as the sequence (Q8TEK3 whole entry, looked up) above

[7] = molecular target: T1, von Hippel-Lindau disease tumor suppressor/Histone-lysine N-methyltransferase, H3 lysine-79 specific; test: PROTAC activity at VHL/DOT1L in mixed-lineage leukemia rearranged (MLL-r) human MV4-11 cells assessed as induction of DOTIL degradation by measuring fold change in H3K79Me2 level at 3 uM incubated for 2 hrs by western blot analysis relative to control; assay type: cell-based
Target sequence in this assay (P40337 whole entry, looked up): as the sequence (P40337 whole entry, looked up) above
Target sequence in this assay (Q8TEK3 whole entry, looked up): as the sequence (Q8TEK3 whole entry, looked up) above

[8] = molecular target: T1, von Hippel-Lindau disease tumor suppressor/Histone-lysine N-methyltransferase, H3 lysine-79 specific; test: PROTAC activity at VHL/DOT1L in mixed-lineage leukemia rearranged (MLL-r) human MV4-11 cells assessed as induction of DOTIL degradation by measuring fold change in H3K79Me2 level at 3 uM incubated for 8 hrs by western blot analysis relative to control; assay type: cell-based
[9] = molecular target: T1, von Hippel-Lindau disease tumor suppressor/Histone-lysine N-methyltransferase, H3 lysine-79 specific; test: PROTAC activity against VHL/DOT1L in mixed-lineage leukemia rearranged (MLL-r) human THP-1 cells assessed as induction of DOT1L degradation at 3 uM preincubated with proteasome inhibitor, MG-132 for 1 hr followed by incubation with compound for 4 hrs by western blot analysis; assay type: cell-based
[10] = molecular target: DNA (cytosine-5)-methyltransferase 3A (Homo sapiens) (UniProt Q9Y6K1); test: Inhibition of human DNMT3a using lambda DNA and SAM as substrate at 10 uM by radiometric Hotspot assay
DNA (cytosine-5)-methyltransferase 3A (Homo sapiens), sequence (Q9Y6K1 whole entry, looked up): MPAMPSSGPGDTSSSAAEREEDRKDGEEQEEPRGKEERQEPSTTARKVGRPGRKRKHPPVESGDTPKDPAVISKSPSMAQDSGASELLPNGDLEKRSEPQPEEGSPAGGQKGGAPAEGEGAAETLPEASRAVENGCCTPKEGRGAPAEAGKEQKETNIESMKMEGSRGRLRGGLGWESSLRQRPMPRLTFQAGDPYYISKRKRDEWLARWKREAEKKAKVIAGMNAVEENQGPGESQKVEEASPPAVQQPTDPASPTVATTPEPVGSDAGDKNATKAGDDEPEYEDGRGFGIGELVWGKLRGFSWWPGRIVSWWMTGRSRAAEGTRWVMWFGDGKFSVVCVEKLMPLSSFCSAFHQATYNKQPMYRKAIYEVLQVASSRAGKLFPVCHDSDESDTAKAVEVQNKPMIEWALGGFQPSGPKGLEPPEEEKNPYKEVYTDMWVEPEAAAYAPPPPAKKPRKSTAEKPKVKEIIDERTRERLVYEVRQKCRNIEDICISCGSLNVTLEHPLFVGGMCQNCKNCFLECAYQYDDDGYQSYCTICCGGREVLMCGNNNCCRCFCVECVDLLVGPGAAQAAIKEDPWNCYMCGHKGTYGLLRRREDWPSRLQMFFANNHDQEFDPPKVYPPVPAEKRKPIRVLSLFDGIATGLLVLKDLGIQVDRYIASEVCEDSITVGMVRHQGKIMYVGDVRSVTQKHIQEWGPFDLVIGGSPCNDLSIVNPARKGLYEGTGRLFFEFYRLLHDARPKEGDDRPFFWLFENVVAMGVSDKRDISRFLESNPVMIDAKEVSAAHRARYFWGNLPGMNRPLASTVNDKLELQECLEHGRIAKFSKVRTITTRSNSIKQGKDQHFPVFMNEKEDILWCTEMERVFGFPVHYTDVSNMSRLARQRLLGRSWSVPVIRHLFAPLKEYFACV

[11] = molecular target: DNA (cytosine-5)-methyltransferase 3B (Homo sapiens) (UniProt Q9UBC3); test: Inhibition of human full length DNMT3b using lambda DNA and SAM as substrate at 10 uM by radiometric Hotspot assay
[12] = molecular target: Histone-lysine N-methyltransferase 2A (Homo sapiens) (UniProt Q03164); test: Inhibition of human MLL1 using nucleosomes and SAM as substrate at 10 uM by radiometric Hotspot assay
[13] = molecular target: T2, Histone-lysine N-methyltransferase NSD2 (Homo sapiens) (UniProt O96028); test: Inhibition of human NSD2 using nucleosomes and SAM as substrate at 10 uM by radiometric Hotspot assay
T2 sequence (whole entry): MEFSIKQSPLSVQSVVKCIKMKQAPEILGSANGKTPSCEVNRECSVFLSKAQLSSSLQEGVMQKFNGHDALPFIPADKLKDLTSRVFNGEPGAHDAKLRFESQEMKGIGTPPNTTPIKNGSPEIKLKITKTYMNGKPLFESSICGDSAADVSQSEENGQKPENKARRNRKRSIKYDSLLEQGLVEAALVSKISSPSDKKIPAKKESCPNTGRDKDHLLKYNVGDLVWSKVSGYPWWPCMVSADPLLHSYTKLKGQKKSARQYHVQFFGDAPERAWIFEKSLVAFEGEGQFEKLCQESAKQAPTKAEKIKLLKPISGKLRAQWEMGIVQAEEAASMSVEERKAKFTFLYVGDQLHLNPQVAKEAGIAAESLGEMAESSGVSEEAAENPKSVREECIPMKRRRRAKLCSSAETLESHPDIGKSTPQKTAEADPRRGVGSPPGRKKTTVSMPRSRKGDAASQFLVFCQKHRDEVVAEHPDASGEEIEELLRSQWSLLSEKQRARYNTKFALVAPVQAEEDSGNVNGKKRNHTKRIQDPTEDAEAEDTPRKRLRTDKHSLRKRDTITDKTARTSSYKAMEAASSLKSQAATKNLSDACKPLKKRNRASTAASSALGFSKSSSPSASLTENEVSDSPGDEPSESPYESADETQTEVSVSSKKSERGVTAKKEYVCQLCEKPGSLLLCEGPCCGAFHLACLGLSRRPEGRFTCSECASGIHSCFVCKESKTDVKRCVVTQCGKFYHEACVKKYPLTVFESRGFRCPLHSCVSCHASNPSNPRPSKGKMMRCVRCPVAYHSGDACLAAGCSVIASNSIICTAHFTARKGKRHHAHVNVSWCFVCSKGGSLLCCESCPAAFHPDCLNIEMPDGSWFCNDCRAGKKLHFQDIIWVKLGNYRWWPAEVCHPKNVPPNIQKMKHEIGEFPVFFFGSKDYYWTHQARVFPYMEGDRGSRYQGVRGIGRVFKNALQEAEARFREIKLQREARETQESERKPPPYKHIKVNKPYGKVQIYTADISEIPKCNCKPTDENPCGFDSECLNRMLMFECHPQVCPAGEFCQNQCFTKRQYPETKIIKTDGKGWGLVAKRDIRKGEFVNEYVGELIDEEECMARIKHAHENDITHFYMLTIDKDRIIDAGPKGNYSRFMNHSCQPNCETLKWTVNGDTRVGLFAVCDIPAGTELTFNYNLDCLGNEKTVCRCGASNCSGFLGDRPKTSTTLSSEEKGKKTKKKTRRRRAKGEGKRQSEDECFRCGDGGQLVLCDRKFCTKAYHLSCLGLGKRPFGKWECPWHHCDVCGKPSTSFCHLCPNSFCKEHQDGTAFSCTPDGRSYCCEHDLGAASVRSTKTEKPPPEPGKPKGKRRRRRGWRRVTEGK

[14] = molecular target: PRMT5/MEP50 complex (Homo sapiens) (UniProt O14744+Q9BQA1); test: Inhibition of human PRMT5/MEP50 complex using histone H2A and SAM as substrate at 10 uM by radiometric Hotspot assay; assay type: protein-complex assay
[15] = molecular target: Protein arginine N-methyltransferase 6 (Homo sapiens) (UniProt Q96LA8); test: Inhibition of PRMT6 (unknown origin) at 10 uM by radiometric methyltransferase assay
Protein arginine N-methyltransferase 6 (Homo sapiens), sequence (Q96LA8 whole entry, looked up): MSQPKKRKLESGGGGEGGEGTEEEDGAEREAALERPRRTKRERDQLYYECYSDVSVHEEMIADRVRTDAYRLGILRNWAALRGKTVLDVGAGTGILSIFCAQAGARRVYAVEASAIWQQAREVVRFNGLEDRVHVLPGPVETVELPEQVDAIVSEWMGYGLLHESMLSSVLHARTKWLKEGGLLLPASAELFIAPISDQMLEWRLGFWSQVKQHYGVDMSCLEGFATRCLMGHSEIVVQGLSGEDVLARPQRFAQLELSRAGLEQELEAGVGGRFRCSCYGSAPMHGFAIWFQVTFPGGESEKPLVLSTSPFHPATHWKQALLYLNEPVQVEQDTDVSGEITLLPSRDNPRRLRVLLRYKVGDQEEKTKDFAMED

[16] = system: MOLM-13; test: Antiproliferative activity against mixed-lineage leukemia rearranged (MLL-r) human MOLM-13 cells assessed as inhibition of cell growth incubated for 7 days by CCK-8 assay; assay type: functional, cell-based; details: time 7.0 day

SMILES: Cc1ncsc1-c1ccc([C@H](CC(=O)NCCCCCCNC(=O)COc2nc(N)nc(Nc3cc(S(N)(=O)=O)ccc3N[C@@H](c3cccc4c3OC(F)(F)O4)c3ncccc3Cl)n2)NC(=O)[C@@H]2C[C@@H](O)CN2C(=O)[C@@H](NC(=O)C2(F)CC2)C(C)(C)C)cc1
- Activity [1]: Dose-dependent-effect
- DC50 [1]: 56 nM
- Activity [2]: 69%
- fold change (FC) [3]: 0.97
- fold change (FC) [4]: 1.08
- fold change (FC) [5]: 0.15
- fold change (FC) [6]: 0.07
- fold change (FC) [7]: 0.41
- fold change (FC) [8]: 0.42
- Activity [9]: inactive
- inhibition [10]: inactive
- inhibition [11]: inactive
- inhibition [12]: inactive
- inhibition [13]: inactive
- inhibition [14]: inactive
- inhibition [15]: inactive
- Activity [16]: Active; Reduced Potency In Molm-13 Cells Relative To Mv4-11 Cells Observed
